Reference: PubChem BioAssay (NCI)
Where “and” joins values, the source holds several entries; their conditions need not be identical. Identical values can stand only once.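 1) Cells in 96-well plates. 2) Compound, 48 h, 5 concentrations. 3) Linear interpolation between surrounding doses. 4) Unreached endpoint = highest concentration. GI50 marks 50% less growth. At the TGI there is no net growth.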 Where a SMILES comes first, the peptide text is derived from it. [ ]: non-standard residue; d: D form. Phe(F5) = N[CH](Cc1c(F)c(F)c(F)c(F)c1F)C(=O)O

How the values were obtained:
Test in all cases: NCI anticancer screen, dose series, 48 h
[1] = tested on: SF-295 CNS
[2] = tested on: HCT-15 colon
[3] = tested on: MOLT-4 leukemia
[4] = tested on: MCF7 breast
[5] = tested on: UACC-62 melanoma
[6] = tested on: KM12 colon
[7] = tested on: IGROV1 ovarian
[8] = tested on: OVCAR-5 ovarian
[9] = tested on: HL-60(TB) leukemia
[10] = tested on: OVCAR-4 ovarian

| Compound | GI50 [1] | TGI [1] | GI50 [2] | TGI [2] | GI50 [3] | TGI [3] | TGI [4] | GI50 [5] | TGI [5] | GI50 [6] | TGI [6] | GI50 [7] | TGI [7] | TGI [8] | GI50 [9] | TGI [9] | GI50 [10] | TGI [10] | GI50 [4] | GI50 [8] |
| --- | --- | --- | --- | --- | --- | --- | --- | --- | --- | --- | --- | --- | --- | --- | --- | --- | --- | --- | --- | --- |
| COC(=O)C(CC(C)C)NC(=O)C(Cc1cnc[nH]1)NC(=O)CNC(=O)C(NC(=O)C(C)NC(=O)C(Cc1c[nH]c2ccccc12)NC(=O)C(CCC(=O)O)NC(=O)C(N)Cc1c(F)c(F)c(F)c(F)c1F)C(C)C (stereo not given) (H-[Phe(F5)]EWAVGHL-OMe; configuration not given here) | > 100 µM | > 100 µM | > 100 µM | > 100 µM | > 100 µM | > 100 µM | > 12.5 µM | > 100 µM | > 100 µM | > 100 µM | > 100 µM | > 100 µM | > 100 µM | > 12.5 µM | > 100 µM | > 100 µM | > 100 µM | > 100 µM | – | – |
| N=C(N)c1nn(C2OC(CO)C(O)C2O)c2nc[nH]c(=O)c12 (stereo not given) | 0.643 µM | 3.26 µM | 0.587 µM | 5.71 µM | 0.491 µM | 4.12 µM | 5.09 µM | 0.431 µM | 1.63 µM | 0.341 µM | 1.46 µM | 1.19 µM | 3.81 µM | 14.2 µM | 0.207 µM | 0.538 µM | 0.647 µM | 7.84 µM | 0.482 µM | 2.85 µM |
| c1ccc2[nH]c(-c3ccc(N4CCN(c5ccc(-c6nc7ccccc7[nH]6)cc5)CC4)cc3)nc2c1 | > 100 µM | > 100 µM | > 100 µM | > 100 µM | 34.9 µM | > 100 µM | > 100 µM | 83 µM | > 100 µM | 71.1 µM | > 100 µM | 69.6 µM | > 100 µM | > 100 µM | > 100 µM | > 100 µM | > 100 µM | > 100 µM | 34.5 µM | 52 µM |
| CCc1ccc(NCc2cc(OC)c(OC)c(OC)c2)cc1 | 0.0741 µM | 6.29 µM and 1.99 µM | – | 42.2 µM and 20.4 µM | – | 87.2 µM and > 91.5 µM | 24.8 µM | 0.22 µM and 0.105 µM | 83.1 µM and > 85.3 µM | – | 20.8 µM and 13.8 µM | 1.32 µM and 0.615 µM | > 66.2 µM | > 76.1 µM | – | 7.94 µM and 5.38 µM | – | > 100 µM | – | 4.09 µM |
| COc1ccc(C(=O)/C=C/c2ccc(Cl)cc2)cc1S(=O)(=O)Nc1c(N)nc(SC)[nH]c1=O | 2.72 µM | 8.91 µM | 3.24 µM | 14.9 µM | 3.71 µM | 18.7 µM | 8.25 µM | 2.33 µM | 6.65 µM | 2.09 µM | 4.51 µM | 3.25 µM | 11.9 µM | 9.53 µM | 3.2 µM | 16.1 µM | 4.49 µM | 14.9 µM | 1.97 µM | 2.83 µM |
| CCN1C(=O)N(CC)C2C1NN=c1s/c(=C3\C(=O)N(C(C)C)c4ccccc43)c(=O)n12 (stereo not given) | 0.246 µM | 0.83 µM | 0.322 µM | > 100 µM | 0.379 µM | > 100 µM | > 100 µM | 0.466 µM | > 36.2 µM | 0.384 µM | > 100 µM | 0.586 µM | > 100 µM | > 100 µM | 0.24 µM | 0.63 µM | 1.6 µM | > 100 µM | 0.396 µM | 0.639 µM |
| O=C(O)CSSCC(=O)O | – | > 100 µM | – | > 100 µM | – | > 100 µM | > 100 µM | – | > 100 µM | – | > 100 µM | – | > 100 µM | > 100 µM | – | > 100 µM | – | > 100 µM | – | – |
| CC[C@](C)(O)C(=O)O[C@H]1C(=O)O[C@@H]2C[C@H]3C(C)=CC(=O)[C@@H](O)[C@]3(C)[C@H]3[C@@]4(O)OC[C@]32[C@@H]1[C@@H](C)[C@H]4O | 0.296 µM | 2.6 µM and 0.351 µM | 0.214 µM | 0.874 µM and 0.533 µM | 0.0366 µM | – | – | 0.149 µM | 0.705 µM and 0.178 µM | 0.233 µM | 3.62 µM and 0.404 µM | 0.0736 µM | 0.544 µM and 0.274 µM | 8.16 µM and 6.86 µM | 0.104 µM | 4.11 µM and 1.09 µM | 0.112 µM | 1.26 µM and 0.923 µM | 0.335 µM | 0.762 µM |
| CN(C)CCNC(=O)c1cccn2c(=O)c3cc4ccccc4cc3nc12 | 0.0679 µM | 1.1 µM | 0.2 µM | > 100 µM | 0.0571 µM | 8.23 µM | > 100 µM | 0.194 µM | 1.37 µM | 0.161 µM | 1.41 µM | 0.0396 µM | 2.17 µM | 13.7 µM | 0.36 µM | 9.73 µM | 0.323 µM | 7.67 µM | 0.232 µM | 0.217 µM |
| CCCN1C(=O)/C(=c2\sc3n(c2=O)C2C(NN=3)N(CC)C(=O)N2CC)c2ccccc21 (stereo not given) | 0.409 µM | 10.7 µM | 0.416 µM | > 52.4 µM | 0.811 µM | > 100 µM | > 32.9 µM | 0.489 µM | 17.4 µM | 0.41 µM | 13.8 µM | 0.876 µM | 14.1 µM | 24.1 µM | 0.3 µM | 1.03 µM | 0.933 µM | 12.8 µM | 0.396 µM | 1.14 µM |
| Cn1c(=O)c2[nH]c(/N=N/N3CCN(CCO)CC3)nc2n(C)c1=O | – | > 100 µM | – | > 100 µM | – | > 100 µM | > 100 µM | – | > 100 µM | – | > 100 µM | – | > 100 µM | > 100 µM | – | > 100 µM | – | > 100 µM | – | – |
| O=C(O)CS(=O)(=O)C(c1ccccc1)c1ccccc1 | – | > 100 µM | – | > 100 µM | – | > 100 µM | > 100 µM | – | > 100 µM | – | > 100 µM | – | > 100 µM | > 100 µM | – | > 100 µM | – | > 100 µM | – | – |
| CCN(CC)CCOc1ccc(C(=C(C)c2ccc(Cl)cc2)c2ccc(OCCN(CC)CC)cc2)cc1 | 0.614 µM | 1.19 µM | 0.556 µM | 1.08 µM | 0.674 µM | 1.5 µM | 0.966 µM | 0.61 µM | 1.18 µM | 0.666 µM | 1.37 µM | 0.609 µM | 1.19 µM | 1.57 µM | 0.639 µM | 1.34 µM | 0.586 µM | 1.32 µM | 0.445 µM | 0.664 µM |
| CC1Oc2cc3c(-c4c(O)cc(O)c5c(O)c6c(cc45)OC(C)C(C)C6=O)c(O)cc(O)c3c(O)c2C(=O)C1C (stereo not given) | – | 0.49 µM | – | 1.15 µM | – | 0.731 µM | 3.75 µM | – | 1.34 µM | – | 1.51 µM | – | 1.3 µM | 6.32 µM | – | 0.65 µM | – | 4.98 µM | – | – |
| NC(=O)[C@H]1CCN(c2ncnc(N)c2F)C[C@@H]1N1CCC[C@@H](Nc2cc(Cl)cc(C(F)(F)F)c2)C1=O | 17.1 µM | 41.8 µM | 15.1 µM | 48.2 µM | 4.93 µM | 65.9 µM | 52.4 µM | 13.9 µM | 29.5 µM | 6.31 µM | > 100 µM | 5.12 µM | > 100 µM | 59.3 µM | 20.5 µM | 42.5 µM | 15.6 µM | 95.3 µM | 13.1 µM | 13.5 µM |
| CCOC(=O)Cc1c[nH]c(=S)[nH]c1=O | > 100 µM | > 100 µM | > 100 µM | > 100 µM | > 100 µM | > 100 µM | > 100 µM | > 100 µM | > 100 µM | > 100 µM | > 100 µM | > 100 µM | > 100 µM | > 100 µM | > 100 µM | > 100 µM | > 100 µM | > 100 µM | > 100 µM | > 100 µM |
| O=C(CCN1CCCC1)Nc1ccc2c(NCc3ccc(F)cc3)c3ccccc3nc2c1 | 0.59 µM | 2.03 µM | 1.53 µM | 4.07 µM | 0.398 µM | 2.34 µM | 1.31 µM | 0.827 µM | 2.16 µM | 0.431 µM | 1.62 µM | 0.363 µM | 1.5 µM | 2.01 µM | 0.55 µM | 2.34 µM | 0.45 µM | 1.84 µM | 0.314 µM | 0.48 µM |
| Cc1ccc(C(=O)Nc2ccc(S(=O)(=O)O)c3cc(S(=O)(=O)O)cc(S(=O)(=O)O)c23)cc1NC(=O)c1cccc(N)c1 | – | > 100 µM | – | > 100 µM | – | > 100 µM | > 100 µM | – | > 100 µM | – | > 100 µM | – | > 100 µM | > 100 µM | – | > 100 µM | – | > 100 µM | – | – |
| C[C@]12CC[C@H]3[C@@H](CCC4=CC(=O)CC[C@@H]43)[C@@H]1CC[C@@H]2OC(=O)N(CCCl)N=O | 0.121 µM | > 44.6 µM | 8.45 µM | 31.3 µM | 0.716 µM | > 32.6 µM | 29.8 µM | 0.413 µM | 18.1 µM | 2.95 µM | 19.2 µM | 0.172 µM | 15.8 µM | 49.9 µM | 0.28 µM | 2.15 µM | 10.8 µM | 31.2 µM | 7.07 µM | 20.8 µM |
